Reference: article PMC3574204 (Bioorganic & medicinal chemistry, 2013)
Blank lines part the entries; values can stand above or below the compound they belong to.

Experiments:
[1] = system: chicken embryo chorioallantoic membrane (CAM); experiment: CAM assay of angiogenesis; conditions: in vivo
[2] = Whole animal toxicity assay; format: in vivo
[3] = biological target: VEGFR-2 (Homo sapiens, UniProt P35968); experiment: Phosphotyrosine ELISA cytoblot, VEGFR-2
[4] = biological target: EGFR (Homo sapiens, UniProt P00533); experiment: Phosphotyrosine ELISA cytoblot, EGFR inhibition in A431 cells; conditions: for EGFR inhibition improved, fold compared to the corresponding 2-amino analog: 14 vs 8, 15 vs 9, 17 vs 11
[5] = system: B16-F10 mouse melanoma tumors; experiment: B16-F10 syngeneic tumor model; format: in vivo, athymic NCr nu/nu male mice; conditions: 10 mg/kg IP twice weekly

EGFR, sequence (P00533 25-1210): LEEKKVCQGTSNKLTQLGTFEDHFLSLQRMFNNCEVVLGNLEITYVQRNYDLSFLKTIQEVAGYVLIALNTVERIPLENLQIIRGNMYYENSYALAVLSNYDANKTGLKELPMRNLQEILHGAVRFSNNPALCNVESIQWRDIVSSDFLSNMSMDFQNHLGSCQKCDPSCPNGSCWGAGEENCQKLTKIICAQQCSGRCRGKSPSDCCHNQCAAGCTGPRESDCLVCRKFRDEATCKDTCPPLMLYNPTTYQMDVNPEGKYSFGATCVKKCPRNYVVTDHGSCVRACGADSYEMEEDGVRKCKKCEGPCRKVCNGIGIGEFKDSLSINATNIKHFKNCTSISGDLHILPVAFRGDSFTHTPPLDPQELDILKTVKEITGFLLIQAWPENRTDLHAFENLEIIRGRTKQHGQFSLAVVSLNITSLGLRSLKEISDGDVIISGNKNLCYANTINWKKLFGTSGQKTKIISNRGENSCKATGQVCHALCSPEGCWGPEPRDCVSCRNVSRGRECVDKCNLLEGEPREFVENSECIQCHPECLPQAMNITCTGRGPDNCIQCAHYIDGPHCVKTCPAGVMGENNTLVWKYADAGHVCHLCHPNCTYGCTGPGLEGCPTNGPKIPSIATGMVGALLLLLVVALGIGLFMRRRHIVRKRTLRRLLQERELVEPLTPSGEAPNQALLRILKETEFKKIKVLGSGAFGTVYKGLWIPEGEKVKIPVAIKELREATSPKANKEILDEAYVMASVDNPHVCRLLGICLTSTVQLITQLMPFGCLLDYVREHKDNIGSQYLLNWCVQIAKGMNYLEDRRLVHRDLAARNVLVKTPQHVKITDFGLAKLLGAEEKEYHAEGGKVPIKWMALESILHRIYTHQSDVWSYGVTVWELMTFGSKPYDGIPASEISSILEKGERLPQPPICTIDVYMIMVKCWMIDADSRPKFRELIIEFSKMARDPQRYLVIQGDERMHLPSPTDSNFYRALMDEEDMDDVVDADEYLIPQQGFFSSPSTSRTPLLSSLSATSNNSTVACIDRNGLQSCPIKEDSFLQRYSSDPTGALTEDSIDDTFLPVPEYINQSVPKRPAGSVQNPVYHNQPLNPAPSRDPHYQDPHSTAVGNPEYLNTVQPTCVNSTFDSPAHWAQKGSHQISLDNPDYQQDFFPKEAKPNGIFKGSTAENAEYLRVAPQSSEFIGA
VEGFR-2, sequence (P35968 20-1356): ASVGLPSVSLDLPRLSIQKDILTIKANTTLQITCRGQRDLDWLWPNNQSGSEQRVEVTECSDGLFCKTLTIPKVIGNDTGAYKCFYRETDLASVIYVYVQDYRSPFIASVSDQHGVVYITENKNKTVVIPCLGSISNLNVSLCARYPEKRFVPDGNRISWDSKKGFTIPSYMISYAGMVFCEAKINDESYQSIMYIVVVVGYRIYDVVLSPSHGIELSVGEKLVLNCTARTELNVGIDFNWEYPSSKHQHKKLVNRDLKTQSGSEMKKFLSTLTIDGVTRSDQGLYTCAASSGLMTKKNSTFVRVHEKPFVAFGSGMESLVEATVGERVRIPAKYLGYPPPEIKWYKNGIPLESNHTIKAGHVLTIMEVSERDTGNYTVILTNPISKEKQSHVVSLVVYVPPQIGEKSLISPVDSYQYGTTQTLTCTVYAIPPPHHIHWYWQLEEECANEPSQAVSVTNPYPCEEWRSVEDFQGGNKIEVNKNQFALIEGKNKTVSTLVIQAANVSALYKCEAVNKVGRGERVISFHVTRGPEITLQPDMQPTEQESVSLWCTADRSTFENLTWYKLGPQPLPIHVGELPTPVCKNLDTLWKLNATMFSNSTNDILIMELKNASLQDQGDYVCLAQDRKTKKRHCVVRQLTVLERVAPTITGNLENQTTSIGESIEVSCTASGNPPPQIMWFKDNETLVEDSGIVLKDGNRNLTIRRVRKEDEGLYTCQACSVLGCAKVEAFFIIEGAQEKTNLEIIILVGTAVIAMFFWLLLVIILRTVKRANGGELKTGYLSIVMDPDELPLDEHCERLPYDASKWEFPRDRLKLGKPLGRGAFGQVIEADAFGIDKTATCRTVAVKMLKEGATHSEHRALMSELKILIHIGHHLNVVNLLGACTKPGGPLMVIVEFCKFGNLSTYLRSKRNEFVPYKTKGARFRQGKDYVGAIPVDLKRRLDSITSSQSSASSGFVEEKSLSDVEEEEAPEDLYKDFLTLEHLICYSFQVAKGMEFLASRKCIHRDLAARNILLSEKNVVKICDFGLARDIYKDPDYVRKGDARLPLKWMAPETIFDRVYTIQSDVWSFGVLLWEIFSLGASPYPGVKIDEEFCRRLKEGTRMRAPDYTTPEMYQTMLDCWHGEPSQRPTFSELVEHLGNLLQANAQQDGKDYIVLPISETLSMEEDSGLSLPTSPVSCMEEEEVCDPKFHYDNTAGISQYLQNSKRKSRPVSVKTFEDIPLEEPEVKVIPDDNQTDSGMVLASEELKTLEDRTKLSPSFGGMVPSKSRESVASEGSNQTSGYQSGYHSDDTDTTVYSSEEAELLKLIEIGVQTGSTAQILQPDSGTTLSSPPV

SMILES: Nc1nc(Nc2ccc(F)c(Br)c2)c2cc(CCc3ccccn3)[nH]c2n1 [Compound 8, N^4-(3-bromo,4-fluorophenyl)-6-(2-pyridin-2-yl-ethyl)-7H-pyrrolo[2,3-d]pyrimidine-2,4-diamine]
CAM angiogenesis assay, fold better than semaxanib (27) [1]: 1.2 fold | weight loss ([2]; 7.5 or 10 mg/kg twice weekly, compared to untreated): no weight loss | weight loss ([2]; 20, 17, and 15 mg/kg twice weekly, 6 week time point): significant | VEGFR-2 inhibition, fold improvement in activity compared to 7 [3]: 2 fold

SMILES: CC(C)(C)C(=O)Nc1nc(Nc2ccc(F)c(Br)c2)c2cc(CCc3ccccn3)[nH]c2n1 [Compound 14, N-{4-[(3-bromo,4-fluorophenyl)amino]-6-(2-pyridin-2-yl-ethyl)-7H-pyrrolo[2,3-d]pyrimidin-2-yl}the-2,2-dimethylpropanamide]
EGFR inhibition improved, fold compared to the corresponding 2-amino analog [4]: 16 fold

SMILES: CC(C)(C)C(=O)Nc1nc(Nc2ccc(F)c(Cl)c2)c2cc(CCc3ccccn3)[nH]c2n1 [Compound 15, N-{4-[(3-chloro,4-fluorophenyl)amino]-6-(2-pyridin-2-yl-ethyl)-7H-pyrrolo[2,3-d]pyrimidin-2-yl}-2,2-dimethylpropanamide]
EGFR inhibition improved, fold compared to the corresponding 2-amino analog [4]: 6.5 fold

SMILES: CN(Cc1cnc2nc(N)nc(N)c2n1)c1ccc(C(=O)N[C@@H](CCC(=O)O)C(=O)O)cc1 [MTX, methotrexate]
B16-F10 primary tumor growth [5]: slightly better at inhibiting primary tumor growth as compared to 8 | decrease in vascular density of B16-F10 tumors ([5]; compared to solvent treated animals): statistically significant | tumor volume ([5]; compared to untreated animals): significantly less increase in tumor volume

More lines, now with the values ahead:

EGFR inhibitory assay, result in words [4]: inactive
SMILES: C#Cc1cccc(Nc2nc(NC(=O)C(C)(C)C)nc3[nH]c(CCc4ccccn4)cc23)c1 [Compound 16, N-{4-[(3-ethynylphenyl)amino]-6-(2-pyridin-2-yl-ethyl)-7H-pyrrolo[2,3-d]pyrimidin-2-yl}-2,2-dimethylpropanamide]

EGFR inhibition improved, fold compared to the corresponding 2-amino analog [4]: 1.4 fold
SMILES: CC(C)(C)C(=O)Nc1nc(Nc2cccc(C(F)(F)F)c2)c2cc(CCc3ccccn3)[nH]c2n1 [Compound 17, N-{4-[(3-trifluoromethylphenyl)amino]-6-(2-pyridin-2-yl-ethyl)-7H-pyrrolo[2,3-d]pyrimidin-2-yl}-2,2-dimethylpropanamide]

EGFR inhibition, fold less active than 12 [4]: 1.7 fold
SMILES: CC(C)(C)C(=O)Nc1nc(Nc2ccc(F)c(C(F)(F)F)c2)c2cc(CCc3ccccn3)[nH]c2n1 [Compound 18, N-{4-[(3-trifluoromethyl,4-fluorophenyl)amino]-6-(2-pyridin-2-yl-ethyl)-7H-pyrrolo[2,3-d]pyrimidin-2-yl}-2,2-dimethylpropanamide]
